# Experiments:
# Format in all cases: in vivo
# [1] = tested on: hard to kill broad leaf weeds; assay: Field efficacy, summary on broad leaf weeds
# Experimental: (§1) As described in the Herbicide Handbook of the Weed Science Society of America, Ninth Edition, 2007, p. 429, “synergism” [is] an interaction of two or more factors such that the effect when combined is greater than the predicted effect based on the response to each factor applied separately. In the Colby method, the expected (or predicted) response of a combination of herbicides is calculated by taking the product of the observed response for each individual component of the combination when applied alone divided by 100 and subtracting this value from the sum of the observed response for each component while applied alone. An unexpected enhancement in efficacy of the combination is then determined by comparing the observed response of the combination to the expected (or predicted) response as calculated from the observed response of each individual component alone. If the observed response of the combination is greater than the expected (or predicted) response, or stated conversely, if the difference between the observed and expected response is greater than zero, then the combination is said to be synergistic or unexpectedly effective. (Colby, S. R., Weeds, 1967(15), p. 20-22). The Colby method required only a single dose of each herbicide applied alone and the mixture of both doses.
# (§2) EFFICACY STUDY: The field experiments were carried out to test the synergy of the combination Metamifop, Imazethapyr, and Imazamox in India at various locations like in MP, Maharashtra, Karnataka, and Telangana on farmer's field against soybean weeds during Kharif season. The experiment comprising of 15 treatments including premixed binary and ternary combinations along with their stand-alone molecule using a randomized block design replicated thrice. All the treatments were applied as post-emergence foliar application when the weeds reached to two to four leaf stage. The spray was conducted with the help of Battery-operated Knapsack sprayer. The percentage efficacy was calculated after 14 and 21 days after application of herbicides.
# Soybean = assay: Phytotoxicity in Soybean, visual grading on 0-10 scale; details: Soybean
# Experimental: as §2
# Phytotoxic effect of herbicidal combination of Metamifop, Imazethapyr and Imazamox in soyabean: Table 5, 10 show the visual observations and grading on phytotoxicity which was recorded for leaf injury on tip/surface, Epinasty/Hyponasty, and wilting etc. on 0-10 scale (as below) at 1, 3, 7, 14 and 21 days after application of the present herbicidal composition.
# Cyanotis axillaris = assay: Field efficacy on broad leaf weed in soybean, post-emergence foliar application
# Experimental: as §1
# (§3) Synergy Study: The following formula was used to calculate the expected activity of mixtures containing active ingredients, A and B:
# (§4) • A=Observed efficacy of active ingredient (combination of Metamifop and Imidazolinone herbicides) A at the same concentration as used in the mixture. • B=observed efficacy of active ingredient B at the same concentration as used in the mixture. However, following formula was used to calculate the expected activity of mixtures containing three active ingredients, A, B and C:
# (§5) • A=observed efficacy of active ingredient (combination of Metamifop and Imidazolinone herbicides) A at the same concentration as used in the mixture. • B=observed efficacy of active ingredient B at the same concentration as used in the mixture. • C=observed efficacy of active ingredient C at the same concentration as used in the mixture.
# as §2
# (§6) The weeds present in the experimental fields were echinochloa conola, echinochloa crusgalli, brachiaria euriciformis, rottboellia cochinchinensis, cynodon dactylon, parthenium hyterophorus, digera arvensis, cynotis axillaris, acalypha indica, Commelina benghalensis, celosia argentia, cyperus spp.
# Commelina benghalensis = assay: as above
# Experimental: as §1, §3, §4, §5, §2, §6
# Parthenium hysterophorus = assay: as above
# Experimental: as §1, §3, §4, §5, §2, §6
# Brachiaria eruciformis = assay: Field efficacy on grass weed in soybean, post-emergence foliar application
# Experimental: as §1, §3, §4, §5, §2, §6
# [2] = tested on: Rottboellia cochinchinensis; assay: as above
# Experimental: as §1, §3, §4, §5, §2, §6
# Echinochloa crusgalli = assay: as above
# Experimental: as §1, §3, §4, §5, §2, §6
structure (smiles),measurement,setting,value
C[C@@H](Oc1ccc(Oc2nc3ccc(Cl)cc3o2)cc1)C(=O)N(C)c1ccccc1F [Metamifop],"Control on targeted weeds, applied alone",[1]; at 14 days,no or very less control
same,"Control on targeted weeds, applied alone",[1]; at 21 days,no or very less control
same,Phytotoxicity score,"Soybean; 1 DAA, Metamifop 80 gm ai/ha",0
same,Phytotoxicity score,"Soybean; 1 DAA, Metamifop 90 gm ai/ha",0
same,Phytotoxicity score,"Soybean; 3 DAA, Metamifop 80 gm ai/ha",0
same,Phytotoxicity score,"Soybean; 3 DAA, Metamifop 90 gm ai/ha",0
same,Phytotoxicity score,"Soybean; 7 DAA, Metamifop 80 gm ai/ha",0
same,Phytotoxicity score,"Soybean; 7 DAA, Metamifop 90 gm ai/ha",0
same,Phytotoxicity score,"Soybean; 14 DAA, Metamifop 80 gm ai/ha",0
same,Phytotoxicity score,"Soybean; 14 DAA, Metamifop 90 gm ai/ha",0
same,Phytotoxicity score,"Soybean; 21 DAA, Metamifop 80 gm ai/ha",0
same,Phytotoxicity score,"Soybean; 21 DAA, Metamifop 90 gm ai/ha",0
same,% Weed control burn down symptoms generation Observed,"Cyanotis axillaris; 14 DAA, Metamifop 80 gm ai/ha",0%
same,% Weed control burn down symptoms generation Observed,"Cyanotis axillaris; 14 DAA, Metamifop 90 gm ai/ha",0%
same,% Weed control burn down symptoms generation Observed,"Cyanotis axillaris; 21 DAA, Metamifop 80 gm ai/ha",0%
same,% Weed control burn down symptoms generation Observed,"Cyanotis axillaris; 21 DAA, Metamifop 90 gm ai/ha",0%
same,% Weed control burn down symptoms generation Observed,"Commelina benghalensis; 14 DAA, Metamifop 80 gm ai/ha",0%
same,% Weed control burn down symptoms generation Observed,"Commelina benghalensis; 14 DAA, Metamifop 90 gm ai/ha",0%
same,% Weed control burn down symptoms generation Observed,"Commelina benghalensis; 21 DAA, Metamifop 80 gm ai/ha",0%
same,% Weed control burn down symptoms generation Observed,"Commelina benghalensis; 21 DAA, Metamifop 90 gm ai/ha",0%
same,% Weed control burn down symptoms generation Observed,"Parthenium hysterophorus; 14 DAA, Metamifop 80 gm ai/ha",0%
same,% Weed control burn down symptoms generation Observed,"Parthenium hysterophorus; 14 DAA, Metamifop 90 gm ai/ha",0%
same,% Weed control burn down symptoms generation Observed,"Parthenium hysterophorus; 21 DAA, Metamifop 80 gm ai/ha",0%
same,% Weed control burn down symptoms generation Observed,"Parthenium hysterophorus; 21 DAA, Metamifop 90 gm ai/ha",0%
same,% Weed control burn down symptoms generation Observed,"Brachiaria eruciformis; 14 DAA, Metamifop 80 gm ai/ha",84%
same,% Weed control burn down symptoms generation Observed,"Brachiaria eruciformis; 14 DAA, Metamifop 90 gm ai/ha",88%
same,% Weed control burn down symptoms generation Observed,"Brachiaria eruciformis; 21 DAA, Metamifop 80 gm ai/ha",78%
same,% Weed control burn down symptoms generation Observed,"Brachiaria eruciformis; 21 DAA, Metamifop 90 gm ai/ha",81%
same,% Weed control burn down symptoms generation Observed,"[2]; 14 DAA, Metamifop 80 gm ai/ha",67%
same,% Weed control burn down symptoms generation Observed,"[2]; 14 DAA, Metamifop 90 gm ai/ha",70%
same,% Weed control burn down symptoms generation Observed,"[2]; 21 DAA, Metamifop 80 gm ai/ha",70%
same,% Weed control burn down symptoms generation Observed,"[2]; 21 DAA, Metamifop 90 gm ai/ha",72%
same,% Weed control burn down symptoms generation Observed,"Echinochloa crusgalli; 14 DAA, Metamifop 80 gm ai/ha",80%
same,% Weed control burn down symptoms generation Observed,"Echinochloa crusgalli; 14 DAA, Metamifop 90 gm ai/ha",83%
same,% Weed control burn down symptoms generation Observed,"Echinochloa crusgalli; 21 DAA, Metamifop 80 gm ai/ha",74%
same,% Weed control burn down symptoms generation Observed,"Echinochloa crusgalli; 21 DAA, Metamifop 90 gm ai/ha",77%
